Measurements reported in publication PMC8445441, “Elucidating the mechanism by which synthetic helper peptides sensitize Pseudomonas aeruginosa to multiple antibiotics” (PLoS Pathogens, 2021).
Where two headings read alike, the source gives them in different places.

What was measured:
P. aeruginosa AUMC-Pa-3 = assay: microbe, parasite or virus in culture
Procedure, shortened: (§1)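 After 18 h at 37 °C, the lowest concentration showing no visible growth was read as the MIC. Drugs were serially diluted two-fold in MHB and combined with an equal volume of inoculum (~1 × 10^6 CFU/mL), following CLSI broth microdilution; run in triplicate.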

P. aeruginosa AUMC-Pa-4 = assay: microbe, parasite or virus in culture
Procedure, shortened: as §1

P. aeruginosa AUMC-Pa-5 = assay: microbe, parasite or virus in culture; settings: strain AUMC-Pa-5
Procedure, shortened: as §1

P. aeruginosa AUMC-Pa-6 = assay: microbe, parasite or virus in culture; settings: strain AUMC-Pa-6
Procedure, shortened: as §1

P. aeruginosa PAO1 = assay: microbe, parasite or virus in culture; settings: PAO1; for FICI / MICac: the MIC for the antibiotic in the combination: S3 Table
Procedure, shortened: as §1

P. aeruginosa ATCC27853 = assay: microbe, parasite or virus in culture; parameters: MICa: MIC of the antibiotic / MICac: MIC of the antibiotic in the combination: unit not given beside the values
Procedure, shortened: as §1

P. aeruginosa NR-31040 = assay: microbe, parasite or virus in culture; parameters: MICa: MIC of the antibiotic / MICac: MIC of the antibiotic in the combination: unit not given beside the values
Procedure, shortened: as §1

P. aeruginosa NR-31041 = assay: microbe, parasite or virus in culture; parameters: MICa: MIC of the antibiotic / MICac: MIC of the antibiotic in the combination: unit not given beside the values
Procedure, shortened: as §1

P. aeruginosa PA14 = assay: microbe, parasite or virus in culture; parameters: MICa: MIC of the antibiotic / MICac: MIC of the antibiotic in the combination: unit not given beside the values
Procedure, shortened: as §1

P. aeruginosa PAK = assay: microbe, parasite or virus in culture; parameters: MICa: MIC of the antibiotic / MICac: MIC of the antibiotic in the combination: unit not given beside the values
Procedure, shortened: as §1

P. aeruginosa HM-214 = settings: strain HM-214; antibiotic + D-11 (MICb/MICbc 128/4)
Procedure, shortened: as §1

P. aeruginosa AUMC-Pa-1 = settings: strain AUMC-Pa-1; antibiotic + D-11 (MICb/MICbc 128/4)
Procedure, shortened: as §1

P. aeruginosa AUMC-Pa-2 = settings: strain AUMC-Pa-2; antibiotic + D-11 (MICb/MICbc 64/4)
Procedure, shortened: as §1

[1] = system: clinical P. aeruginosa isolates; assay: microbe, parasite or virus in culture; settings: Pseudomonas aeruginosa, 18 h, antibiotic alone
Procedure, shortened: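 MIC is the lowest drug concentration showing no visible growth after 18 h at 37 °C. Two-fold dilutions in MHB were combined with an equal volume of bacterial suspension (about 1 × 10^6 CFU/mL), following CLSI broth microdilution, in triplicate.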

[2] = antibiotic + D-11 (MICb/MICbc 64/4)
[3] = antibiotic alone, unit not given
[4] = with D-11 at MICbc 4, unit not given

In the case of CO[C@H]1/C=C/O[C@@]2(C)Oc3c(C)c(O)c4c(O)c(c(/C=N/N5CCN(C6CCCC6)CC5)c(O)c4c3C2=O)NC(=O)/C(C)=C\C=C\[C@H](C)[C@H](O)[C@@H](C)[C@@H](O)[C@@H](C)[C@H](OC(C)=O)[C@@H]1C [Rifapentine], the MIC (P. aeruginosa AUMC-Pa-3; Pseudomonas aeruginosa, AUMCPA3, 18 h, read-out: MICa: MIC of the antibiotic) is reported as 8 µM, the FICI (P. aeruginosa AUMC-Pa-3; strain AUMC-Pa-3, antibiotic + D-11 (MICb/MICbc 128/4)) is reported as 0.035 and the “MICac: MIC of the antibiotic in the combination” value (“MICac: MIC of the antibiotic” for short) (P. aeruginosa AUMC-Pa-3; strain AUMC-Pa-3, with D-11 at MICbc 4, unit not given) is reported as 0.031. The MIC (P. aeruginosa AUMC-Pa-4; Pseudomonas aeruginosa, AUMCPA4, 18 h, read-out: MICa: MIC of the antibiotic) was 16 µM, the FICI (P. aeruginosa AUMC-Pa-4; strain AUMC-Pa-4, antibiotic + D-11 (MICb/MICbc 128/4)) was 0.063 and the “MICac: MIC of the antibiotic” value (P. aeruginosa AUMC-Pa-4; strain AUMC-Pa-4, with D-11 at MICbc 4, unit not given) was 0.5. For the same molecule, the FICI (P. aeruginosa AUMC-Pa-5; [2]) was 0.563, the “MICa: MIC of the antibiotic” value (P. aeruginosa AUMC-Pa-5; [3]) was 32 and the “MICac: MIC of the antibiotic” value (P. aeruginosa AUMC-Pa-5; [4]) was 16. The FICI (P. aeruginosa AUMC-Pa-6; [2]) was 0.188, the “MICa: MIC of the antibiotic” value (P. aeruginosa AUMC-Pa-6; [3]) was 16 and the “MICac: MIC of the antibiotic” value (P. aeruginosa AUMC-Pa-6; [4]) was 2. For the same molecule, the MIC (P. aeruginosa PAO1; Pseudomonas aeruginosa, PAO1, 18 h, read-out: MICa: the MIC of antibiotics, S3 Table, antibiotic alone) was 32 µM, the FICI (P. aeruginosa PAO1; antibiotic + 2 μM D-11) was 0.066 and the FICI (P. aeruginosa PAO1; antibiotic + 4 μM D-11) was 0.126. The “MICac: the MIC for the antibiotic in the combination” value (P. aeruginosa PAO1; with 2 μM D-11) was 0.125 µM, the “MICac: the MIC for the antibiotic in the combination” value (P. aeruginosa PAO1; with 4 μM D-11) was 0.03125 µM and the MIC (P. aeruginosa ATCC27853; Pseudomonas aeruginosa, ATCC27853, 18 h, read-out: MICa: MIC of the antibiotic) was 32 µM. The FICI (P. aeruginosa ATCC27853; strain ATCC27853, antibiotic + D-11 (MICb/MICbc 32/4)) was 0.133, the “MICac: MIC of the antibiotic” value (P. aeruginosa ATCC27853; strain ATCC27853, with D-11 at MICbc 4, unit not given) was 0.031 and the MIC (P. aeruginosa NR-31040; Pseudomonas aeruginosa, NR31040, 18 h, read-out: MICa: MIC of the antibiotic) was 8 µM. For the same molecule, the FICI (P. aeruginosa NR-31040; strain NR-31040, antibiotic + D-11 (MICb/MICbc 128/4)) was 0.094, the “MICac: MIC of the antibiotic” value (P. aeruginosa NR-31040; strain NR-31040, with D-11 at MICbc 4, unit not given) was 0.5 and the MIC (P. aeruginosa NR-31041; Pseudomonas aeruginosa, NR31041, 18 h, read-out: MICa: MIC of the antibiotic) was 16 µM. The FICI (P. aeruginosa NR-31041; strain NR-31041, antibiotic + D-11 (MICb/MICbc 64/4)) was 0.066, the “MICac: MIC of the antibiotic” value (P. aeruginosa NR-31041; strain NR-31041, with D-11 at MICbc 4, unit not given) was 0.063 and the MIC (P. aeruginosa PA14; Pseudomonas aeruginosa, PA14, 18 h, read-out: MICa: MIC of the antibiotic) was > 128 µM. For the same molecule, the FICI (P. aeruginosa PA14; strain PA14, antibiotic + D-11 (MICb/MICbc 128/4)) was 0.063, the “MICac: MIC of the antibiotic” value (P. aeruginosa PA14; strain PA14, with D-11 at MICbc 4, unit not given) was 8 and the MIC (P. aeruginosa PAK; Pseudomonas aeruginosa, 18 h, read-out: MICa: MIC of the antibiotic) was 16 µM. For the same molecule, the FICI (P. aeruginosa PAK; strain PAK, antibiotic + D-11 (MICb/MICbc 64/4)) was 0.070, the “MICac: MIC of the antibiotic” value (P. aeruginosa PAK; strain PAK, with D-11 at MICbc 4, unit not given) was 0.125 and the FICI (P. aeruginosa HM-214) was 0.063. The FICI (P. aeruginosa AUMC-Pa-1) was 0.035, the FICI (P. aeruginosa AUMC-Pa-2) was 0.066 and the MIC ([1]; read-out: Antibiotic sensibility (MIC) of clinical P. aeruginosa isolate AUMC-Pa-1, strain AUMC-Pa-1) was 16 µM. For the same molecule, the MIC ([1]; read-out: Antibiotic sensibility (MIC) of clinical P. aeruginosa isolate AUMC-Pa-2, strain AUMC-Pa-2) was 8 µM, the MIC ([1]; read-out: Antibiotic sensibility (MIC) of clinical P. aeruginosa isolate AUMC-Pa-3, strain AUMC-Pa-3) was 8 µM and the MIC ([1]; read-out: Antibiotic sensibility (MIC) of clinical P. aeruginosa isolate AUMC-Pa-4, strain AUMC-Pa-4) was 16 µM. For the same molecule, the MIC ([1]; read-out: Antibiotic sensibility (MIC) of clinical P. aeruginosa isolate AUMC-Pa-5, strain AUMC-Pa-5) was 32 µM, the MIC ([1]; read-out: Antibiotic sensibility (MIC) of clinical P. aeruginosa isolate AUMC-Pa-6, strain AUMC-Pa-6) was 16 µM and the MIC ([1]; read-out: Antibiotic sensibility (MIC) of clinical P. aeruginosa isolate HM-214, strain HM-214) was 8 µM. The MIC ([1]; read-out: Antibiotic sensibility (MIC) of clinical P. aeruginosa isolate NR-31040, strain NR-31040) was 8 µM and the MIC ([1]; read-out: Antibiotic sensibility (MIC) of clinical P. aeruginosa isolate NR-31041, strain NR-31041) was 16 µM.
